# Source: patent US12221426B2, “Inhibitory material against human body-derived nicotinamide adenine dinucleotide phosphate-dependent steroid dehydrogenase-like, and anticancer agent comprising same as effective ingredient or pharmaceutical composition comprising same as effective ingredient for treatment of hyperlipidemia” (SEOUL NATIONAL UNIVERSITY R&DB FOUNDATION, priority 2018, dated 2025)
# Biological target: Human-derived nicotinamide adenine dinucleotide phosphate-dependent steroid dehydrogenase (NSDHL) (Homo sapiens (Human), UniProt Q15738)
# Sequence (Q15738 whole entry): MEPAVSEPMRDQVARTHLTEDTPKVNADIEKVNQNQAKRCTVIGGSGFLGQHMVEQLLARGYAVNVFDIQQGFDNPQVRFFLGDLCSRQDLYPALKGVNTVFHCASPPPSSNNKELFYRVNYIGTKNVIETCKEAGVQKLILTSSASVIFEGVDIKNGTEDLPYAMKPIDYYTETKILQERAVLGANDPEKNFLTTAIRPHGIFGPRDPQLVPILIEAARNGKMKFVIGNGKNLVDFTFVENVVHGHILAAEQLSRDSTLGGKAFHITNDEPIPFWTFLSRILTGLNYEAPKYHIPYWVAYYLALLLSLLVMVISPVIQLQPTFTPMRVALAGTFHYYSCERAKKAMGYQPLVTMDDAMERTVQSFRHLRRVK
# Assay: NSDHL inhibitory activity evaluation: decrease of NADH fluorescence amplification when inhibitor releases NADH from NSDHL
# Assay type: binding
# Conditions: recombinant NSDHL (16 μM, 50 μl) + NADH (50 μM, 50 μl), room temperature 10 min, Ex 340 nm/Em 460 nm, 96-well plate
# Experimental: In order to evaluate the nicotinamide adenine dinucleotide phosphate-dependent steroid dehydrogenase (NSDHL) inhibitory activity of the compound provided in one aspect of the present invention, the following experiment was performed.
# Human-derived nicotinamide adenine dinucleotide phosphate-dependent steroid dehydrogenase (NADP-dependent steroid dehydrogenase-like; NSDHL) was expressed in large quantities in E. coli. The NSDHL gene was inserted into pET21a plasmid, which was cloned into E. coli C41 (DE3). After culturing E. coli in Luria Broth medium at 37° C., IPTG was added thereto at the time when OD600 was about 0.7 to express NSDHL, followed by culture at 37° C. for 4 hours.
# The cultured E. coli was centrifuged, and the cells were stored at −80° C. The cells were crushed by sonification, which was first purified using IMAC (Immobilized metallo-affinity chromatography), and then finally purified using SEC (Size exclusion chromatography). The composition of the buffer solution for storing NSDHL was as follows: 40 mM HEPES (pH 8.0), 150 mM NaCl, and 0.5 mM TCEP.
# When dehydrogenase binds to NADH, fluorescence intensity is amplified compared to NADH alone. In other words, if the dehydrogenase, NSDHL, is treated with an inhibitor in a state in which it is bound to NADH, the fluorescence intensity will be reduced because NADH is released. FIG. 1 is a graph showing the results of measuring the fluorescence intensity of NADH according to the concentration of NSDHL.
# In addition, it was also confirmed in FIG. 2 that an experiment for inhibiting was possible using NAD+, which is an oxidized form of NADH, but is not measured in the fluorescence measurement range of NADH. FIG. 2 is a graph showing the results of an experiment for inhibiting NSDHL and NADH conjugate using NAD+.
# An activity assay was performed using a 96-well plate, and an experiment was performed after adding an inhibitor to each well at the final concentrations of 200 μM≤1 μM. Particularly, 50 μl of 16 μM NSDHL, 50 mM HEPES, 20% glycerol were added to each well, and then 50 ul of 50 μM NADH was added to each well, followed by reaction at room temperature for 10 minutes. The fluorescence level of each well was measured using SpectraMax M5 (Molecular Devices) equipment (Ex: 340 nm, Em: 460 nm). The values were corrected by separately measuring the absorbance of the compound and the buffer solution, and the degree of inhibition of each compound against NSDHL was measured based on the NADH fluorescence at the same concentration without binding. IC50 (inhibitory concentration at 50%) was calculated using GraphPad Prism software.
row,IC50 [µM],Structure (SMILES)
1,27.1,"O=C(O)CN1C(=O)/C(=C/c2cc(Br)ccc2OCc2ccccc2I)SC1=S [Example 5, (Z)-2-(5-(5-bromo-2-(2-iodobenzyloxy)benzylidene)-4-oxo-2-thioxothiazolidin-3-yl)acetic acid]"
2,19.9,"COc1cccc(OCc2ccccc2)c1/C=C1\SC(=S)N(CC(=O)O)C1=O [Example 3, (Z)-2-(5-(2-(benzyloxy)-6-methoxybenzylidene)-4-oxo-2-thioxothiazolidin-3-yl)acetic acid]"
3,12.8,"O=C(O)CN1C(=O)/C(=C/c2cn(-c3ccc(F)cc3)nc2-c2cccc(Cl)c2)SC1=S [Example 2, (Z)-2-(5-((3-(3-chlorophenyl)-1-(4-fluorophenyl)-1H-pyrazole-4-yl)methylene)-4-oxo-2-thioxothiazolidin-3-yl)acetic acid]"
4,17.8,"O=C(O)CN1C(=O)/C(=C/c2ccc(O)cc2OCc2ccccc2Br)SC1=S [Example 4, (Z)-2-(5-(2-(2-bromobenzyloxy)-4-hydroxybenzylidene)-4-oxo-2-thioxothiazolidin-3-yl)acetic acid]"
5,10.4,"O=C(O)CN1C(=O)/C(=C/c2cc(-c3ccc(F)cc3)ccc2OCc2ccc(C(=O)O)cc2)SC1=S [Example 1, (Z)-4-((3-((3-(carboxymethyl)-4-oxo-2-thioxothiazolidin-5-ylidene)methyl)-4′-fluorobiphenyl-4-yloxy)methyl)benzoic acid]"
